From US20240246954A1, “COMPOSITIONS AND METHODS FOR INHIBITING KRAS” (TheRas, Inc., priority 2021, published 2024)

Legend:
[1] = tested on: pERK in GP2d cells (KRAS G12D); assay: Cell-based pERK HTRF assay; details: GP2d, 1 h, 60 min incubation
Protocol: Biological Example 3. Cell-Based pERK HTRF Assay
pERK assay (Perkin Elmer) was used to determine the effectiveness of compounds in disrupting KRAS G12D protein/effector signaling in cells.
On Day 1, cells (GP2d) were seeded into 96-well plates at 3×10^4 cells/well in 80 μl complete growth media (DMEM, 10% FBS).
On Day 2, cells were treated with compounds at 0.25% DMSO. The source plate was created with compounds diluted in media at 5-fold the final assay concentration. The compounds were run in a 9-point concentration curve starting at 1 μM, with a half-log dilution between concentrations. 20 μL was transferred onto the cell plates (final volume in wells was 100 μL). Plates were harvested after 60 min incubation by aspirating media and adding kit-supplied 1× supplemented lysis buffer to all wells (50 μl per well). Plates were then placed on a plate shaker and incubated at 850 rpm for an additional 30 min.
Antibody mixture solution is prepared by diluting aliquoted d2 and Eu Cryptate antibodies 1:20 in kit supplied detection buffer, mix the diluted antibodies solutions (1:1 v:v). Four μL of this solution is then added to a 384-well detection plate (Perkin Elmer; 6008230).
Samples were homogenized by pipetting up and down and then transferred (16 μL of cell lysates) from the 96-well cell culture plate to two wells of the HTRF 384-well detection plate containing the antibody solution. Plates were centrifuged (524 g for 1 min) and allowed to incubate between 4 and 24 h at room temperature. Maximum signal is reached after 4 h incubation time and remains stable over a period of 24 hours. Therefore, readings can be made between 4 and 24 h of incubation. Plates were centrifuged again (524 g for 1 min), then analyzed on the EnVision plate reader using the following settings: Excitation 320 nm, Bandwidth 75 nm; Emission 615 nm, Bandwidth 85 nm; Gain 100%; Flashes 100; Lag 60 μs.

[2] = target: T1, Avi-KRAS G12D (1-169) GppNHp/RAF1 RBD-3×FLAG (52-151) (Homo sapiens, UniProt P01116, G12D); assay: HTRF Raf1-KRAS G12D-GppNHp disruption assay; format: biochemical; details: 1 h incubation
T1 construct: Avi-KRAS G12D (1-169) GppNHp
T1 sequence (P01116 1-169 isoform P01116-2 G12D limits assumed): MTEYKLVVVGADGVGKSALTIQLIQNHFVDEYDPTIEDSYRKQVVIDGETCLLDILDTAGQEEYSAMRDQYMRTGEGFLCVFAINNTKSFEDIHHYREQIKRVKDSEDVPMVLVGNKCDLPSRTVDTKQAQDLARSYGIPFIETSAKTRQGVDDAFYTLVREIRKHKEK
Method in brief: (§1)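 HTRF read-out (320 nm excitation, 615 nm emission) after two 1 h room-temperature incubations, first with protein mix, then detection reagents. Ten-point dilution series starting at 100 μM; results given as % activity relative to DMSO at 100%.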

[3] = target: T2, Avi-KRAS G12D/Q25A (1-169) GppNHp/3×FLAG-PI3KCA (157-299) (Homo sapiens, UniProt P01116, G12D/Q25A); assay: HTRF PI3KCA-KRAS G12D/Q25A-GppNHp disruption assay; format: biochemical; details: 1 h incubation
T2 construct: Avi-KRAS G12D/Q25A (1-169) GppNHp
T2 sequence (P01116 1-169 isoform P01116-2 G12D/Q25A limits assumed): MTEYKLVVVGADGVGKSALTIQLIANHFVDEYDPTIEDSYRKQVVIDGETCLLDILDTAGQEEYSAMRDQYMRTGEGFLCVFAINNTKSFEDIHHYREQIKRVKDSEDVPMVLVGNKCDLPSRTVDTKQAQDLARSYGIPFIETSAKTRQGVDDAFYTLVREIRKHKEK
Method in brief: as §1

`CCN1[C@@H]2CC[C@H]1CN(c1nc(OC[C@@]34CCCN3C[C@H](F)C4)nc3c(F)c(-c4ccc(F)c5sc(N)nc45)c(C(F)(F)F)cc13)C2` [Compound 315, 4-(4-((1R,5S)-8-ethyl-3,8-diazabicyclo[3.2.1]octan-3-yl)-8-fluoro-2-(((2R,7aS)-2-fluorotetrahydro-1H-pyrrolizin-7a(5H)-yl)methoxy)-6-(trifluoromethyl)quinazolin-7-yl)-7-fluorobenzo[d]thiazol-2-amine] showed an IC50 [1] of 100 to 1000 nM, an IC50 [2] of 1000 to 10000 nM and an IC50 [3] of 10000 to 30000 nM.

`CC(C)N1C2CCC1CN(c1nc(OC[C@@]34CCCN3C[C@H](F)C4)nc3c(F)c(-c4ccc(F)c5sc(N)nc45)c(C(F)(F)F)cc13)C2` [Compound 316] gave an IC50 [1] of 100 to 1000 nM, an IC50 [2] of 1000 to 10000 nM and an IC50 [3] of 1000 to 10000 nM.

`N#Cc1csc2c(F)ccc(-c3cc4nc(OC[C@@]56CCCN5C[C@H](F)C6)nc(N5CC6CCC(C5)N6)c4cc3C(F)(F)F)c12` [Compound 318] showed an IC50 [1] of 100 to 1000 nM, an IC50 [2] of 1000 to 10000 nM and an IC50 [3] of 10000 to 30000 nM.

With `Nc1nc2c(-c3cc4nc(OC[C@@]56CCCN5C[C@H](F)C6)nc(N5CC6CCC(C5)N6)c4cc3C(F)(F)F)c(F)cc(F)c2s1` [Compound 319] the IC50 [1] was ≤ 100 nM, the IC50 [2] was 100 to 1000 nM and the IC50 [3] was 100 to 1000 nM.

`N#Cc1c(N)sc2c(F)ccc(-c3c(OC(F)(F)F)cc4c(N5CC6CCC(C5)N6)nc(OC[C@@]56CCCN5C[C@H](F)C6)nc4c3F)c12` [Compound 320] was tested, and the IC50 [1] was ≤ 100 nM, the IC50 [2] was 100 to 1000 nM and the IC50 [3] was 100 to 1000 nM.

For `N#Cc1c(N)sc2c(F)ccc(-c3cc4nc(OC[C@@]56CCCN5C[C@H](F)C6)nc(N5CC6CCC(C5)N6)c4cc3C(F)(F)F)c12` [Compound 323, 4-(4-(3,8-diazabicyclo[3.2.1]octan-3-yl)-2-(((2R,7aS)-2-fluorotetrahydro-1H-pyrrolizin-7a(5H)-yl)methoxy)-6-(trifluoromethyl)quinazolin-7-yl)-2-amino-7-fluorobenzo[b]thiophene-3-carbonitrile], the IC50 [1] was ≤ 100 nM, the IC50 [2] was ≤ 100 nM and the IC50 [3] was 100 to 1000 nM.

`Nc1nc2c(-c3c(C(F)(F)F)cc4c(N5CC6CCC(C5)N6CC5CC5)nc(OC[C@@]56CCCN5C[C@H](F)C6)nc4c3F)ccc(F)c2s1` [Compound 324] gave an IC50 [1] of 100 to 1000 nM, an IC50 [2] of 1000 to 10000 nM and an IC50 [3] of 1000 to 10000 nM.

In the case of `CN(c1nc(OC[C@@]23CCCN2C[C@H](F)C3)nc2c(F)c(-c3ccc(F)c4sc(N)nc34)c(C(F)(F)F)cc12)[C@H]1CNCC1(C)C` [Compound 325], the IC50 [1] is reported as > 1000 nM, the IC50 [2] is reported as 1000 to 10000 nM and the IC50 [3] is reported as 1000 to 10000 nM.

For `Nc1nc2c(-c3c(C(F)(F)F)cc4c(N[C@H]5C[C@H]6CNC[C@H]6C5)nc(OCC56CCCN5CCC6)nc4c3F)ccc(F)c2s1` [Compound 326], the IC50 [1] was > 1000 nM, the IC50 [2] was 1000 to 10000 nM and the IC50 [3] was 1000 to 10000 nM.

For `Nc1nc2c(-c3c(C(F)(F)F)cc4c(N5CCC6(CCNC6)C5)nc(OCC56CCCN5CCC6)nc4c3F)ccc(F)c2s1` (stereo not drawn) [Compound 327], the IC50 [1] was > 1000 nM, the IC50 [2] was 100 to 1000 nM and the IC50 [3] was 1000 to 10000 nM.

`Nc1nc2c(-c3c(C(F)(F)F)cc4c(N[C@H]5CCC[C@H](N)C5)nc(OCC56CCCN5CCC6)nc4c3F)ccc(F)c2s1` [Compound 328] was tested, and the IC50 [1] was > 1000 nM, the IC50 [2] was 1000 to 10000 nM and the IC50 [3] was 1000 to 10000 nM.

In the case of `Nc1nc2c(-c3c(C(F)(F)F)cc4c(N[C@H]5CCC[C@@H](N)C5)nc(OCC56CCCN5CCC6)nc4c3F)ccc(F)c2s1` [Compound 329], the IC50 [1] is reported as > 1000 nM, the IC50 [2] is reported as 10000 to 30000 nM and the IC50 [3] is reported as 10000 to 30000 nM.

In the case of `N#Cc1c(N)sc2c(F)ccc(-c3c(C(F)(F)F)cc4c(N5CC6CCC(C5)N6)nc(OCC5(CN6CC[C@@H](F)C6)CC5)nc4c3F)c12` [Compound 330], the IC50 [1] is reported as ≤ 100 nM, the IC50 [2] is reported as ≤ 100 nM and the IC50 [3] is reported as 100 to 1000 nM.

`Fc1c(-c2cc(C(F)F)cc3ccccc23)c(C(F)(F)F)cc2c(N3CC4CCC(C3)N4)nc(OCC34CCCN3CCC4)nc12` [Compound 331] was tested, and the IC50 [1] was > 1000 nM, the IC50 [2] was 10000 to 30000 nM and the IC50 [3] was 10000 to 30000 nM.

`Nc1nc2c(-c3c(C(F)(F)F)cc4c(N5CCC[C@H]6NCC[C@H]65)nc(OCC56CCCN5CCC6)nc4c3F)ccc(F)c2s1` [Compound 332] was tested, and the IC50 [1] was 100 to 1000 nM, the IC50 [2] was 100 to 1000 nM and the IC50 [3] was 1000 to 10000 nM.

In the case of `Nc1nc2c(-c3c(C(F)(F)F)cc4c(N5CC[C@@H]6NCC[C@@H]65)nc(OCC56CCCN5CCC6)nc4c3F)ccc(F)c2s1` [Compound 333], the IC50 [1] is reported as > 1000 nM, the IC50 [2] is reported as 1000 to 10000 nM and the IC50 [3] is reported as 1000 to 10000 nM.

`Nc1nc2c(-c3c(C(F)(F)F)cc4c(N[C@@H]5CCC6(CNC6)C5)nc(OCC56CCCN5CCC6)nc4c3F)ccc(F)c2s1` [Compound 334] was tested, and the IC50 [1] was > 1000 nM, the IC50 [2] was 1000 to 10000 nM and the IC50 [3] was 1000 to 10000 nM.

With `Nc1nc2c(-c3c(C(F)(F)F)cc4c(N[C@H]5CCC6(CNC6)C5)nc(OCC56CCCN5CCC6)nc4c3F)ccc(F)c2s1` [Compound 335] the IC50 [1] was > 1000 nM, the IC50 [2] was 100 to 1000 nM and the IC50 [3] was 100 to 1000 nM.

`C[C@@H]1C[C@@H](N(C)c2nc(OC[C@@]34CCCN3C[C@H](F)C4)nc3cc(-c4ccc(F)c5sc(N)nc45)c(C(F)(F)F)cc23)CN1` [Compound 336] gave an IC50 [1] of 100 to 1000 nM, an IC50 [2] of 100 to 1000 nM and an IC50 [3] of 1000 to 10000 nM.

For `N#Cc1c(N)sc2c(F)ccc(-c3c(C(F)(F)F)cc4c(N5CC6CCC(C5)N6)nc(OCC5(CN6CCOCC6)CC5)nc4c3F)c12` [Compound 337], the IC50 [1] was ≤ 100 nM, the IC50 [2] was ≤ 100 nM and the IC50 [3] was 100 to 1000 nM.

In the case of `Fc1c(-c2ccc(F)c3sc(C(F)F)nc23)c(C(F)(F)F)cc2c(N3CC4CCC(C3)N4)nc(OC[C@@]34CCCN3C[C@H](F)C4)nc12` [Compound 339], the IC50 [1] is reported as > 1000 nM, the IC50 [2] is reported as 10000 to 30000 nM and the IC50 [3] is reported as 10000 to 30000 nM.

In the case of `CN1CCC(Oc2nc(N3CC4CCC(C3)N4)c3cc(C(F)(F)F)c(-c4ccc(F)c5sc(N)nc45)c(F)c3n2)CC1` [Compound 340], the IC50 [1] is reported as 100 to 1000 nM, the IC50 [2] is reported as 1000 to 10000 nM and the IC50 [3] is reported as 1000 to 10000 nM.

For `N#Cc1c(O)cccc1-c1c(C(F)(F)F)cc2c(N3CC4CCC(C3)N4)nc(OCC34CCCN3CCC4)nc2c1F` [Compound 341], the IC50 [1] was > 1000 nM, the IC50 [2] was 10000 to 30000 nM and the IC50 [3] was 10000 to 30000 nM.

`N#Cc1c(N)cccc1-c1c(C(F)(F)F)cc2c(N3CC4CCC(C3)N4)nc(OCC34CCCN3CCC4)nc2c1F` [Compound 342] was tested, and the IC50 [1] was > 1000 nM, the IC50 [2] was 10000 to 30000 nM and the IC50 [3] was 10000 to 30000 nM.

In the case of `Nc1nc2c(-c3c(C(F)(F)F)cc4c(N5C[C@H]6CC[C@@H](C5)N6)nc(OC[C@@]56CCCN5C[C@H](F)C6)nc4c3O)ccc(F)c2s1` [Compound 343, 7-(2-amino-7-fluorobenzo[d]thiazol-4-yl)-4-((1R,5S)-3,8-diazabicyclo[3.2.1]octan-3-yl)-2-(((2R,7aS)-2-fluorotetrahydro-1H-pyrrolizin-7a(5H)-yl)methoxy)-6-(trifluoromethyl)quinazolin-8-ol], the IC50 [1] is reported as > 1000 nM, the IC50 [2] is reported as 10000 to 30000 nM and the IC50 [3] is reported as 10000 to 30000 nM.

Work on `CN(c1nc(OC[C@@]23CCCN2C[C@H](F)C3)nc2c(F)c(-c3ccc(F)c4sc(N)c(C#N)c34)ccc12)[C@@H]1CCNC1` [Compound 344] yielded an IC50 [1] of 100 to 1000 nM, an IC50 [2] of 100 to 1000 nM and an IC50 [3] of 100 to 1000 nM.

For `CN(c1nc(OC[C@@]23CCCN2C[C@H](F)C3)nc2c(F)c(-c3ccc(F)c4sc(N)c(C#N)c34)c(C#N)cc12)[C@@H]1CCNC1` [Compound 345, 7-(2-amino-3-cyano-7-fluorobenzo[b]thiophen-4-yl)-8-fluoro-2-(((2R,7aS)-2-fluorotetrahydro-1H-pyrrolizin-7a(5H)-yl)methoxy)-4-(methyl((R)-pyrrolidin-3-yl)amino)quinazoline-6-carbonitrile], the IC50 [1] was 100 to 1000 nM, the IC50 [2] was 100 to 1000 nM and the IC50 [3] was 100 to 1000 nM.
